Results as given in patent US6793938B2, “Biodegradable compositions for the controlled release of encapsulated substances” (Skye Pharma, Inc., priority 1998, dated 2004).

Test: Serum amikacin after single oral administration by gavage
Type: in vivo, male Harlan Sprague Dawley albino rats
Settings: rat, 20 mg amikacin per rat
Procedure: The lipid-only, 1:1 lipid/polymer and the polymer-only pharmaceutical compositions with amikacin encapsulated therein, or unencapsulated amikacin as a solution at pH 8 was administered orally by gavage to 300 g male Harlan Sprague Dawley albino rats. The number of animals per group was six. The dose was 20 mg per rat and the volume was 2 mL. Serum was collected via venipuncture (saphenous vein) from unanesthetized animals at 15, 45, 90 min., 3, 8, 24, and 48 hours. The specimens were kept at −40° C. until analysis.
The concentration of amikacin in serum was determined using a competitive particle concentration fluorescence immunoassay. Polystyrene beads (Idexx Research Product Division, Memphis, Tenn.) were first coated with anti-amikacin antibody (The Binding Site, San Diego, Calif.). The beads were incubated with a combination of fluorescent-labeled amikacin (The Binding Site) and serum containing amikacin which compete for the anti-amikacin antibody sites on the beads. The amount of fluorescent-labeled amikacin bound to the beads was measured by a fluorescence concentration analyzer (Idexx Research Product Division) which is inversely proportional to the amikacin concentration in serum.

For `NCC[C@H](O)C(=O)N[C@@H]1C[C@H](N)[C@@H](O[C@H]2O[C@H](CN)[C@@H](O)[C@H](O)[C@H]2O)[C@H](O)[C@H]1O[C@H]1O[C@H](CO)[C@@H](O)[C@H](N)[C@H]1O` [unencapsulated amikacin, amikacin], the “peak level of the concentration of amikacin in circulation” value was 1.82 ± 0.73 µg/mL and the “time at which peak circulatory levels were reached” value was 45 min.
